According to US20220330549A1, “USE OF N-BENZYLBENZAMIDE-BASED COMPOUND AS HERBICIDE” (Northwest A&F University, priority 2020, published 2022):

Legend:
Type in all cases: in vivo
green bristlegrass [1] = assay: Herbicidal activity test for indoor pre-emergence soil treatment; set-up: key: level 1-9; higher = more weed remaining vs blank control; conditions: 150 g a.i./ha, visual inspection 21 days after treatment
Summary of the method: (§1)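 Pre-emergence soil spray per NY/T 1155.3-2006: weed seeds sown in moistened neutral sandy loam (organic content ≤2%), covered with 0.5–2.0 cm soil, then sprayed 24 h later with a water-diluted 10% emulsifiable concentrate at 150 g(a.i.)/ha. Visual rating after 21 days on a 1–9 scale.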

Piemarker [2] = assay: as above; set-up: key: level 1-9; higher = more weed remaining vs blank control; conditions: 150 g a.i./ha, visual inspection 21 days after treatment
Summary of the method: as §1

Barnyard grass [3] = assay: as above; set-up: key: level 1-9; higher = more weed remaining vs blank control; conditions: 150 g a.i./ha, visual inspection 21 days after treatment
Summary of the method: as §1

Humulus scandens [4] = assay: as above; conditions: 150 g a.i./ha, visual inspection 21 days after treatment
Summary of the method: as §1

Amaranthus retroflexus [5] = assay: Herbicidal activity test for indoor post-emergence spraying on stems and leaves; set-up: key: grade level by weed remaining vs blank control, e.g. 5 = 10.1-15%; conditions: 150 g a.i./ha, visual inspection 21 days after treatment
Summary of the method: (§2)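 Run per NY/T 1155.4-2006: weeds sown, grown in greenhouse, then sprayed post-emergence on stems and leaves. Effect scored visually 21 days after treatment on a graded level scale relative to weed in the blank control area.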

green bristlegrass [6] = assay: as above; set-up: key: grade level by weed remaining vs blank control, e.g. 5 = 10.1-15%; conditions: 150 g a.i./ha, visual inspection 21 days after treatment
Summary of the method: as §2

Piemarker [7] = assay: as above; set-up: key: grade level by weed remaining vs blank control, e.g. 5 = 10.1-15%; conditions: 150 g a.i./ha, visual inspection 21 days after treatment
Summary of the method: as §2

Digitaria sanguinalis [8] = assay: as above; set-up: key: grade level by weed remaining vs blank control, e.g. 5 = 10.1-15%; conditions: 150 g a.i./ha, visual inspection 21 days after treatment
Summary of the method: as §2

Humulus scandens [9] = assay: as above; set-up: key: grade level by weed remaining vs blank control, e.g. 5 = 10.1-15%; conditions: 150 g a.i./ha, visual inspection 21 days after treatment
Summary of the method: as §2

Barnyard grass [10] = assay: as above; set-up: key: grade level by weed remaining vs blank control, e.g. 5 = 10.1-15%; conditions: 150 g a.i./ha, visual inspection 21 days after treatment
Summary of the method: as §2

Broadleaf weed = assay: Post-emergence herbicidal activity test in a paddy field; set-up: key: level scale; higher level = more weed left vs blank control; conditions: 150 g a.i./ha (penoxsulam control 250 g(a.i.)/h)
Summary of the method: (§3)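 Efficacy was visually estimated 15 and 30 days after spraying, grading weed coverage relative to an untreated neighbouring plot (level 2 = 0 to 2.5%, level 9 = 67.6 to 100%). Treatments were 150 g(a.i.)/ha from 10% emulsifiable concentrates applied at the 4-5 leaf rice stage, four repeats of 50 m^2 each.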

Gramineae = assay: as above; set-up: key: level scale; higher level = more weed left vs blank control; conditions: 150 g a.i./ha (penoxsulam control 250 g(a.i.)/h)
Summary of the method: as §3

Cyperaceae = assay: as above; set-up: key: level scale; higher level = more weed left vs blank control; conditions: 150 g a.i./ha (penoxsulam control 250 g(a.i.)/h)
Summary of the method: as §3

Amaranthus retroflexus [11] = assay: Herbicidal activity test for indoor pre-emergence soil treatment; set-up: key: 1-9 levels; higher = more weed remaining vs blank control; conditions: 150 g a.i./ha, visual inspection 21 days after treatment
Summary of the method: as §1

Digitaria sanguinalis [12] = assay: as above; set-up: key: 1-9 levels; higher = more weed remaining vs blank control; conditions: 150 g a.i./ha, visual inspection 21 days after treatment
Summary of the method: as §1

Amaranthus retroflexus [13] = assay: Field test for weed control in a corn field; conditions: 150 g a.i./ha, 30 days after treatment
Summary of the method: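 Field efficacy trial in a corn field following GB/T 17980.42-2000. Test compounds were formulated as 10% emulsifiable concentrates, diluted in water and sprayed post-emergence when corn had 2 to 5 leaves. Each treatment covered 20 m^2 with 4 replicates. A 25% mesotrione oil dispersion served as control. Damage to Amaranthus retroflexus was rated on a 1-9 scale against untreated blank plots.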

Solanum nigrum = assay: Field test for weed control in a corn field; conditions: 150 g a.i./ha, 30 days after treatment
Summary of the method: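 Post-emergence weed control was tested in a corn field following GB/T 17980.42-2000. Compounds were made into 10% emulsifiable concentrates, diluted in water and sprayed at 150 g(a.i.)/ha when corn had 2 to 5 leaves after sowing, in 20 m^2 plots with 4 replicates. Effects on Solanum nigrum were graded on a 1-9 scale relative to the blank control area.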

goosegrass = assay: Field test for weed control in a corn field; conditions: 150 g a.i./ha, after treatment
Summary of the method: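 Weed control efficacy against goosegrass was tested in a corn field following GB/T 17980.42-2000. Compounds formulated as 10% emulsifiable concentrates were diluted in water and sprayed post-emergence at 150 g(a.i.)/ha when corn had 2 to 5 leaves, with 4 replicates of 20 m^2 plots. Herbicidal activity was rated on a 1-9 scale by damage symptoms and severity.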

Acalypha australis = assay: Field test for weed control in a corn field; conditions: 150 g a.i./ha, after treatment
Summary of the method: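 Post-emergence field trial in a corn field following GB/T 17980.42-2000. Test compounds were formulated as 10% emulsifiable concentrates, diluted in water, and sprayed at 150 g(a.i.)/ha when corn had 2 to 5 leaves, with 4 replicates on 20 m^2 plots. Mesotrione 25% oil dispersion served as the control agent. Weed control was scored on a 1-9 scale.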

green bristlegrass [14] = assay: Field test for weed control in a corn field; conditions: 150 g a.i./ha, after treatment
Summary of the method: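 Post-emergence weed control was tested in a corn field following GB/T 17980.42-2000. When the corn had 2 leaves to 5 leaves after sowing, 10% emulsifiable concentrates diluted in water were sprayed at 150 g(a.i.)/ha on 20 m^2 plots, four replicates per treatment. Effects on green bristlegrass were scored on a 1-9 damage scale relative to the blank control area.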

nutgrass flatsedge = assay: Field test for weed control in a corn field; conditions: 150 g a.i./ha, after treatment
Summary of the method: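 A corn field efficacy trial following GB/T 17980.42-2000 assessed post-emergence control of nutgrass flatsedge. Test compounds were formulated as 10% emulsifiable concentrates, diluted in water, and sprayed at 150 g(a.i.)/ha when the corn had 2 to 5 leaves. Each treatment had 4 replicates on 20 m^2 plots. Herbicidal activity was graded on a 1-9 scale by damage symptoms and severity.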

Portulaca oleracea = assay: Field test for weed control in a corn field; conditions: 150 g a.i./ha, after treatment
Summary of the method: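 Field efficacy trial in corn following GB/T 17980.42-2000. Test compounds were prepared as 10% emulsifiable concentrates, diluted in water, and sprayed at 150 g(a.i.)/ha when corn had 2 to 5 leaves after sowing. Plots were 20 m^2 with 4 replicates per treatment. Herbicidal activity was scored on a 1-9 scale from weed damage symptoms and severity.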

Digitaria sanguinalis [15] = assay: Field test for weed control in a corn field; conditions: 150 g a.i./ha, after treatment
Summary of the method: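 Field trial in a corn field following GB/T 17980.42-2000. Test compounds were formulated as 10% emulsifiable concentrates, diluted in water and sprayed post-emergence at 150 g(a.i.)/ha when corn had 2 to 5 leaves, with 4 replicates on 20 m^2 plots. Control of Digitaria sanguinalis was scored on a 1-9 scale based on weed damage relative to the untreated blank area.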

Convolvulus arvensis = assay: Field test for weed control in a corn field; conditions: 150 g a.i./ha, after treatment
Summary of the method: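 Field trial of weed control against Convolvulus arvensis in corn, run following GB/T 17980.42-2000. Test agents were formulated as 10% emulsifiable concentrates and sprayed in water at 150 g(a.i.)/ha when corn plants had 2 to 5 leaves. Each treatment was replicated 4 times on 20 m^2 plots, and 25% mesotrione oil dispersion served as the control agent.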

Chenopodium album = assay: Field test for weed control in a corn field; conditions: 150 g a.i./ha, after treatment
Summary of the method: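 A corn-field efficacy trial following GB/T 17980.42-2000 tested post-emergence control of Chenopodium album. Test compounds formulated as 10% emulsifiable concentrates were diluted in water and sprayed at 150 g(a.i.)/ha when the corn had 2 leaves to 5 leaves, on 20 m^2 plots with 4 replicates. Herbicidal activity was rated on a 1-9 scale by damage symptoms and severity.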

Barnyard grass [16] = assay: Field test for weed control in a corn field; conditions: 150 g a.i./ha, 30 days after treatment
Summary of the method: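 Corn-field efficacy trial following GB/T 17980.42-2000. Test compounds were formulated as 10% emulsifiable concentrates, diluted in water and sprayed post-emergence at 150 g(a.i.)/ha when corn had 2 to 5 leaves. Each treatment was replicated 4 times on 20 m^2 plots. Barnyard grass control was rated on a 1-9 damage scale.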

Cc1cccc(C(=O)NCc2cccc(F)c2)c1 [Compound B01]
Herbicidal Activity Green bristlegrass (green bristlegrass [1]): 1 | Herbicidal Activity Piemarker (Piemarker [2]): 2 (equivalent to 0 to 2.5% of the weed in the blank control area) | Herbicidal Activity Barnyard grass (Barnyard grass [3]): 2 (equivalent to 0 to 2.5% of the weed in the blank control area) | Herbicidal Activity Humulus scandens (Humulus scandens [4]): 2 (equivalent to 0 to 2.5% of the weed in the blank control area) | Herbicidal Activity Amaranthus retroflexus (Amaranthus retroflexus [5]): 1 | Herbicidal Activity Green bristlegrass (green bristlegrass [6]): 1 | Herbicidal Activity Piemarker (Piemarker [7]): 1 | Herbicidal Activity Digitaria sanguinalis (Digitaria sanguinalis [8]): 1 | Herbicidal Activity Humulus scandens (Humulus scandens [9]): 1 | Herbicidal Activity Barnyard grass (Barnyard grass [10]): 2 (equivalent to 0 to 2.5% of the weed in the blank control area) | Herbicidal activity 15 days after treatment Broadleaf weed (Broadleaf weed; 15 days after treatment): 1 | Herbicidal activity 30 days after treatment Broadleaf weed (Broadleaf weed; 30 days after treatment): 2 (equivalent to 0 to 2.5% of the weed in the blank control area) | Herbicidal activity 15 days after treatment Gramineae (Gramineae; 15 days after treatment): 2 (equivalent to 0 to 2.5% of the weed in the blank control area) | Herbicidal activity 30 days after treatment Gramineae (Gramineae; 30 days after treatment): 2 (equivalent to 0 to 2.5% of the weed in the blank control area) | Herbicidal activity 15 days after treatment Cyperaceae (Cyperaceae; 15 days after treatment): 2 (equivalent to 0 to 2.5% of the weed in the blank control area) | Herbicidal activity 30 days after treatment Cyperaceae (Cyperaceae; 30 days after treatment): 2 (equivalent to 0 to 2.5% of the weed in the blank control area) | Herbicidal Activity Amaranthus retroflexus (Amaranthus retroflexus [11]): 1 | Herbicidal Activity Digitaria sanguinalis (Digitaria sanguinalis [12]): 1 | Post-emergence weed control effect, Amaranthus retroflexus (Amaranthus retroflexus [13]): 1 | Post-emergence weed control effect, Solanum nigrum (Solanum nigrum): 2 (equivalent to 0 to 2.5% of the weed in the blank control area) | Post-emergence weed control effect, Goose grass (goosegrass): 1 | Post-emergence weed control effect, Acalypha australis (Acalypha australis): 2 (equivalent to 0 to 2.5% of the weed in the blank control area) | Post-emergence weed control effect, Green bristlegrass (green bristlegrass [14]): 1 | Post-emergence weed control effect, Nutgrass flatsedge (nutgrass flatsedge): 2 (equivalent to 0 to 2.5% of the weed in the blank control area) | Post-emergence weed control effect, Portulaca oleracea (Portulaca oleracea): 1 | Post-emergence weed control effect, Digitaria sanguinalis (Digitaria sanguinalis [15]): 1 | Post-emergence weed control effect, Convolvulus arvensis (Convolvulus arvensis): 2 (equivalent to 0 to 2.5% of the weed in the blank control area) | Post-emergence weed control effect, Chenopodium album (Chenopodium album): 1 | Post-emergence weed control effect, Barnyard grass (Barnyard grass [16]): 1
